Results on 32 compounds are retold here after US20260158031A1, “AROMATIC HETEROCYCLIC COMPOUND, PHARMACEUTICAL COMPOSITION CONTAINING THE SAME, AND USE THEREOF” (HANG ZHOU YUHONG PHARMATECH CO., LTD., priority 2021, published 2026).

One assay has as its target T1, JAK3 kinase (Homo sapiens, UniProt P52333).
T1 sequence (P52333 1-1124): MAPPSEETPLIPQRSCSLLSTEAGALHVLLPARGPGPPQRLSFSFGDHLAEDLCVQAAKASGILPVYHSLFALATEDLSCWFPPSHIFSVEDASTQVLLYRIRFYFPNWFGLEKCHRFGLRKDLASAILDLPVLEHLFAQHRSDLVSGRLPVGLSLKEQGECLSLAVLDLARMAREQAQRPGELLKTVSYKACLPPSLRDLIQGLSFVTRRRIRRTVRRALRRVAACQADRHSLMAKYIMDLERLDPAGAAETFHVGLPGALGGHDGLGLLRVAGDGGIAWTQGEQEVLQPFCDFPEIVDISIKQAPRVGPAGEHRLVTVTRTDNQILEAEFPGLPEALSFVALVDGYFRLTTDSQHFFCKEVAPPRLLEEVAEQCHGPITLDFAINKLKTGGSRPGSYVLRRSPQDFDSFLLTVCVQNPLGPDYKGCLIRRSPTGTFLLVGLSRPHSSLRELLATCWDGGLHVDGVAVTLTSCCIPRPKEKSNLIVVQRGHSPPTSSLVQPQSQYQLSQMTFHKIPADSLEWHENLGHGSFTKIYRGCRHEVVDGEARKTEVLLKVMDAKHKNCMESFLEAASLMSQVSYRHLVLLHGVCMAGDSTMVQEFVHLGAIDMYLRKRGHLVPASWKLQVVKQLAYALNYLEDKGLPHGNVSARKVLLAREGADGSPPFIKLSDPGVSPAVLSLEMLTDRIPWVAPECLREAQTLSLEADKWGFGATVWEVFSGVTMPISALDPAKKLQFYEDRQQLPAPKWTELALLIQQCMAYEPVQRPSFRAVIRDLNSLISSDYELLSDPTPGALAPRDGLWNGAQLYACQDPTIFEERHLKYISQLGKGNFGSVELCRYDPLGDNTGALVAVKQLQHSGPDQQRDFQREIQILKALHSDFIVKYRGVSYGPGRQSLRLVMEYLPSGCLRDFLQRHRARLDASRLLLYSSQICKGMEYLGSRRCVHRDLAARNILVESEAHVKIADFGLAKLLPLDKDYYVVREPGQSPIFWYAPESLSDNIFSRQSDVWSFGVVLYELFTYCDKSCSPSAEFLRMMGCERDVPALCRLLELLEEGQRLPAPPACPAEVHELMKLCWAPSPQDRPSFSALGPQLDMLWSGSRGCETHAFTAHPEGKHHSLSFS
The assay can be described thus: Mobility shift assay, in vitro JAK3 kinase inhibitory activity. It counts as biochemical. The following applies: mobility shift assay, Example 136. Here is the method:
A Mobility shift assay was adopted to detect compounds to be tested (see list below) for in vitro inhibitory activity on the enzyme activity of JAK3 kinase.
The compound was dissolved in 100% DMSO to formulate a 10 mM stock solution, which was stored in a −20° C. refrigerator with protection from light.
The compounds were diluted with gradients into solutions with a final concentration of 100 times in a 384-well plate. Then 250 nL was transferred to a 384 reaction plate with Echo550 for later use. 250 nL of 100% DMSO was added into the negative control well and the positive control well respectively. • (3) A kinase solution with a final concentration of 2.5 times was formulated with the 1× Kinase buffer. • (4) The compound wells and the positive control wells were added with 10 μL of the kinase solution with the final concentration of 2.5 times respectively; the negative control wells were added with 10 μL of the 1× Kinase buffer. • (5) The wells were centrifuged at 1,000 rpm for 30 seconds, mixed well by shaking, and then incubated at room temperature for 10 minutes. • (6) A mixed solution of ATP and Kinase substrate 22 with a final concentration of 25/15 times was formulated with a 1× Kinase buffer. • (7) The compound wells, positive control wells and negative control wells of the 384 reaction plate were respectively added with 15 μL of a mixed solution of ATP and the substrate at the final concentration of 25/15 times to start the reaction. • (8) The 384-well plate was centrifuged at 1,000 rpm for 30 seconds, mixed well by shaking, and then incubated at room temperature for 30 minutes. • (9) 30 μL of a detection termination solution was added to stop the kinase reaction, centrifuged at 1,000 rpm for 30 seconds, and mixed well by shaking. • (10) The conversion rate was read with Caliper EZ Reader.
% Inhibition=(Conversion %_max−Conversion %_sample)/(Conversion %_max−Conversion %_min)×100 (1) Calculation Equation
Among them: Conversion %_sample was the conversion rate reading of the sample; Conversion %_min was the mean value of the negative control wells, representing the conversion rate reading of the wells without enzyme activity; Conversion % max was the mean value of the positive control wells, representing the conversion rate reading of the wells without compound inhibition; and % Inhibition represented the percentage inhibition rate.
• by taking the log value of concentration as the X axis and taking the percent inhibition rate as the Y axis, a dose-response curve is fitted by adopting the log (inhibitor) vs. response-Variable slope of the analysis software GraphPad Prism 5, so as to obtain the IC50 value of each compound on the enzyme activity. The calculation equation was Y=Bottom+ (Top−Bottom)/(1+10^((Log IC50−X)*HillSlope)).
On to `C=CC(=O)N1CCn2ncc(-c3ccnc4[nH]ccc34)c2C1` [YZ001002], for which the half-inhibitory concentration (IC50) (usually the concentration at which inhibition is half-maximal) was 0.14 nM.

In the case of `C[C@@H]1Cn2ncc(-c3ccnc4[nH]ccc34)c2CN1S(C)(=O)=O` [YZ001011], the 50% inhibitory concentration (IC50) is greater than 10000 nM.

As for `C[C@@H]1Cn2ncc(-c3ccnc4[nH]ccc34)c2CN1C(=O)CCl` [YZ001013], the IC50 was 8.1 nM.

As for `C=CC(=O)N1Cc2c(-c3ncnc4[nH]ccc34)cnn2C[C@H]1C` [YZ001018], the IC50 amounted to 0.48 nM.

Take `C[C@H]1Cn2ncc(-c3ccnc4[nH]ccc34)c2CN1C(=O)/C=C/CN(C)C` [YZ001022]: the 50% inhibitory concentration (IC50) was 0.87 nM.

Take `C[C@H]1Cn2ncc(-c3ccnc4[nH]ccc34)c2CN1C(=O)/C=C/CN1CCCCC1` [YZ001023]: the 50% inhibitory concentration (IC50) came to 0.58 nM.

Consider `C=CC(=O)N1Cc2c(-c3ncnc4[nH]ccc34)cnn2C[C@@H]1C` [YZ001024], for which the IC50 was 0.15 nM.

With `C=CC(=O)N1Cc2c(-c3ncnc4[nH]ccc34)cnn2[C@@H](C)C1` [YZ001026], the IC50 is 0.43 nM.

With `C[C@H]1CN(C(=O)/C=C/CN(C)C)Cc2c(-c3ncnc4[nH]ccc34)cnn21` [YZ001027], the IC50 was found to be 7.8 nM.

Take `C=CC(=O)N1Cc2c(-c3ncnc4[nH]ccc34)cnn2[C@H](C)C1` [YZ001028]: the IC50 was found to be 0.19 nM.

On to `C=CC(=O)N1Cc2c(-c3ncnc4[nH]ccc34)cnn2C[C@H]1C(C)C` [YZ001030], for which the IC50 turned out to be 2.4 nM.

Turning to `C=CC(=O)N1Cc2c(-c3ncnc4[nH]ccc34)cnn2C[C@@H]1C(C)C` [YZ001033], the IC50 was 0.12 nM.

Take `C=CC(=O)N1Cc2c(-c3ccnc4[nH]ccc34)cnn2[C@@H]2CCC[C@@H]21` [YZ001045]: the IC50 is 0.19 nM.

Consider `CN(C)C/C=C/C(=O)N1Cc2c(-c3ccnc4[nH]ccc34)cnn2[C@@H]2CCC[C@@H]21` [YZ001047], for which the IC50 was found to be 4.5 nM.

As to `C=CC(=O)N1Cc2c(-c3ccnc4[nH]ccc34)cnn2[C@@H]2CCCC[C@@H]21` [YZ001055], the IC50 was determined as 0.11 nM.

With `C=C(F)C(=O)N1Cc2c(-c3ccnc4[nH]ccc34)cnn2[C@@H]2CCCC[C@@H]21` [YZ001056], the concentration for half-maximal inhibition (IC50) was 4.2 nM.

As for `C=CC(=O)N1Cc2c(-c3ccnc4[nH]ccc34)cnn2[C@H]2CCC[C@H]21` [YZ001057], the IC50 was 0.31 nM.

Consider `C=CC(=O)N1Cc2c(-c3ccnc4[nH]cc(C(C)=O)c34)cnn2C[C@@H]1C` [YZ001063], for which the half-inhibitory concentration (IC50) was 1.4 nM.

In the case of `C=CC(=O)N1Cc2c(-c3ccnc4[nH]ccc34)cnn2C[C@H]1CCS(C)(=O)=O` [YZ001074], the concentration for half-maximal inhibition (IC50) is 0.57 nM.

For `C=CC(=O)N1Cc2[nH]nc(-c3ccnc4[nH]ccc34)c2C1` [YZ001076], the IC50 was found to be 0.28 nM.

On to `C=C(F)C(=O)N1Cc2[nH]nc(-c3ccnc4[nH]ccc34)c2C1` [YZ001077], for which the IC50 turned out to be 7.1 nM.

As to `C=CC(=O)N1Cc2c(-c3ccnc4[nH]ccc34)nn(C)c2C[C@H]1C` [YZ001083], the half-inhibitory concentration (IC50) was determined as 1.5 nM.

Regarding `C=CC(=O)N1Cc2c(-c3ccnc4[nH]ccc34)nn(C(C)C)c2C[C@H]1C` [YZ001085], the IC50 amounted to 0.53 nM.

In the case of `C=CC(=O)N1Cc2c(-c3ccnc4[nH]ccc34)n[nH]c2[C@@H]1C` [YZ001091], the IC50 came to 5.1 nM.

Consider `C=CC(=O)N1CCCn2ncc(-c3ccnc4[nH]ccc34)c2C1` [YZ001093], for which the IC50 was 1.4 nM.

With `C=CC(=O)N1CCCCn2ncc(-c3ccnc4[nH]ccc34)c2C1` [YZ001095], the IC50 turned out to be 7 nM.

On to `C=CC(=O)N1Cc2c(-c3ccnc4[nH]ccc34)cnn2[C@H](C)C1` [YZ001099], for which the IC50 worked out at 0.2 nM.

As for `C=C(F)C(=O)N1Cc2c(-c3ccnc4[nH]ccc34)cnn2[C@H](C)C1` [YZ001100], the IC50 is 3.8 nM.

Consider `[2H]C([2H])([2H])n1nc(-c2ccnc3[nH]ccc23)c2c1CCN(C(=O)C=C)C2` [YZ001103], for which the half-inhibitory concentration (IC50) worked out at 0.29 nM.

On to `C=CC(=O)N1CCc2c(c(-c3ccnc4[nH]ccc34)nn2C(C)=O)C1` [YZ001108], for which the IC50 amounted to 0.35 nM.

For the compound `C=C(F)C(=O)N1CCc2c(c(-c3ccnc4[nH]ccc34)nn2C(C)=O)C1` [YZ001109], the concentration for half-maximal inhibition (IC50) worked out at 5.2 nM.

On to `C=CC(=O)N1CCc2c(c(-c3ccnc4[nH]ccc34)nn2C(C)C)C1` [YZ001117], for which the IC50 was 6.93 nM.

The subject of a further assay is SRBC mouse model. Briefly: SRBC-induced delayed type hypersensitivity (DTH) in mice. It counts as in vivo. The following applies: male Balb/c mice, 100 mg/kg by gavage once a day, day 0 to day 6, FIG. 1. Here is the method: PF-06651600 was used as a positive control compound.
Drug preparation: the compound was weighed and added with a 0.5% CMC-Na solution to prepare a drug suspension (with an administration dose of 10 mg/mL).
Induction of delayed type hypersensitivity (DTH) and administration: 30 male Balb/c mice were weighed and randomly divided into 6 groups according to body weight, with 5 mice in each group. The experimental period lasted for 7 days in total. On day 0, the mice were subcutaneously injected with sheep red blood cells (SRBCs) for sensitization. From day 0, the mice were administrated with 100 mg/kg by gavage (once a day) until day 6. On day 6, SRBCs were injected into the right hind foot pad of the mice for excitation. On day 7 of the experiment, measurements were conducted, photographs were taken, and the experiment was ended.
Pharmacodynamic detection indicators of disease models: the detection and observation indicators were the degree of redness and swelling and detected thicknesses of paw pads of the mice in the model group as induced by SRBC. The thickness of the right paw was measured as the baseline before the SRBC injection excitation on day 6. At the end of the experiment […], the thickness of the right paw was measured again, and the difference in thickness of the paw before and after the second injection was calculated.
Statistical processing: experimental data was expressed as mean±standard deviation (Mean±SD). All data was statistically analyzed using a T-test. P<0.05 was considered to be statistically different.
Take `C=CC(=O)N1Cc2c(-c3ccnc4[nH]ccc34)nn(C(C)C)c2C[C@H]1C` [YZ001085]: the “immunosuppressive effect on SRBC-induced delayed type hypersensitivity (right paw thickness)” value is “significant immunosuppressive effects”.
